Laboratory results published in ChEMBL document CHEMBL6153032, “Discovery of a highly potent, N-terminal domain-targeting degrader of AR-FL/AR-V7 for the treatment of prostate cancer” (Eur J Med Chem, 2025).

Experiments:
CWR22R = assay: Inhibition of colony formation in human 22Rv1 cells assessed as reduction in colony formation incubated for 14 days; format: functional, cell-based; details: dose 1-100 nM, time 14.0 day
[1] = target: Protein cereblon/Androgen receptor (Homo sapiens, UniProt P10275+Q96SW2); assay: PROTAC activity at full length Androgen receptor/CRBN in human 22Rv1 cells assessed as reduction in full length androgen receptor level incubated for 24 hrs by Western blot analysis; format: cell-based

DC50 [1]: 180 nM
Activity ([1]; dose <= 5.0 µM): Dose-dependent-effect
Structure (SMILES): CC(C)(c1ccc(OCCNc2cccc3c2C(=O)N(C2CCC(=O)NC2=O)C3=O)cc1)c1ccc(OCc2cccc(N3CCOCC3)n2)cc1 (stereo not drawn)
inhibition (CWR22R): Dose-dependent-effect
